Laboratory results published in patent US6716879B2, “Methods for anti-tumor therapy” (Compass Pharmaceuticals, LLC, priority 2000, dated 2004).
Where two headings read alike, the source gives them in different places.

Key:
[1] = tested on: Leiomyosarcoma/pelvic patient tumor cells; experiment: Alamar Blue anti-tumor screen, IC50 on patient tumor cells, tumor #4; format: cell-based, human
From the text: (§1) Excess tissue specimens obtained from patients undergoing therapeutic surgical resections were freshly obtained at the time of surgery and a small portion of the specimen was sent for pathological testing. For diagnosis and grading of tissue samples (ie: prior to processing), hematoxylin and eosin stained tissue sections were examined by a pathologist. If the diagnosis and grading of the tissue concurred with the determination made by the surgical pathologist that provided the tissue, then the tissue was used in the screen. If there was no agreement, then two additional pathologists served as referees. If no consensus was reached, then the tissue was not used.
(§2) The remaining tissue was used to prepare cell suspensions. The tissue was initially treated enzymatically via standard methods until only undigested material remained. The digested cell suspension was filtered through one or more screens of between 40 micron and 100 micron porosity. The resulting cell suspension was further purified via isokinetic density centrifugation.
(§3) Additional normal cells were removed from the cell suspension by negative immunoselection with a combination of monoclonal antibodies linked to magnetic beads (Dynal) that were used according to the manufacturers' instructions. The remaining cells were placed into appropriate medium, frozen down in 1.0 mL aliquots, and stored until use.
After tissue processing, the relative purity of the resulting cell suspension was determined by cytological examination after fixation and Papanicolaou staining. Only those cell preparations greater than 80% tumor cells were used for testing of candidate compounds. If there was any doubt about the percentage of tumor cells in the cell preparation, additional pathologists served as referees to make a determination.
(§4) Cell preparations that passed histological and cytological examination for diagnosis, grading, and cell purity were thawed at 37° C. and resuspended in tissue culture medium designed to maintain the cells during the incubation period. The live and dead cells were counted and the cells were diluted in culture medium to 1.0×10^3 live cells/test well for tumor cells and 3.3×10^3 live cells/test well for normal cells.
The cells were added to microtiter plates and incubated at 37° C. overnight with 10 μM of the candidate compounds that were added at 1/10th the volume of the cell suspension. Alamar Blue (Accumed International, Westlake Ohio) was then added to the cells at 1/10 the volume of the well, and the cells were further incubated at 37° C. for various times. Alamar Blue dye measures cellular re-dox reactions (ie: cellular respiration) whereby a spectral shift occurs upon reduction of the dye. (Excitation 530 nm; emission 590 nm).
The kinetics of cellular re-dox reactions were subsequently measured at various times, for example at 3 hours, 3 days, and 5 days post-dye addition. These measurements, in comparison with control cells (untreated with compound) and media controls (test wells without cells) provide the percent inhibition of cellular mitochondrial respiration as a result of candidate compound treatment, as well as IC50 determinations.
In a blinded fashion, approximately 10,000 compounds were tested at a rate of 1,000-4,000 compounds per run set against various tumor types. The anti-tumor screen utilized was composed of three tiers as follows. In screen 1, patient tumor cells were tested in singles, with candidate compounds at a concentration of 10 μM. […]

[2] = tested on: Fibrohistiocytic Sarcoma/lung patient tumor cells; experiment: Alamar Blue anti-tumor screen, IC50 on patient tumor cells, tumor #2; format: cell-based; details: Homo sapiens, triplicate
From the text: as §1, with “used. […]” for “used.”
(§5) After tissue processing, the relative purity of the resulting cell suspension was determined by cytological examination after fixation and Papanicolaou staining. […]
as §4, with “cells. […]” for “cells.”
(§6) The kinetics of cellular re-dox reactions were subsequently measured at various times, for example at 3 hours, 3 days, and 5 days post-dye addition. […]

[3] = tested on: Leiomyosarcoma/abdominal patient tumor cells; experiment: Alamar Blue anti-tumor screen, IC50 on patient tumor cells, tumor #1; format: cell-based, human; details: triplicate
From the text: as §1, with “used. […]” for “used.”
as §5
as §4, with “cells. […]” for “cells.”
as §6

[4] = tested on: Gastrointestinal stromal tumor (sarcoma) patient tumor cells; experiment: Alamar Blue anti-tumor screen, IC50 on patient tumor cells, tumor #5; format: cell-based; details: Homo sapiens, triplicate
From the text: as §1, with “used. […]” for “used.”
as §5
as §4, with “cells. […]” for “cells.”
as §6

[5] = tested on: Ovarian patient tumor cells; experiment: Alamar Blue anti-tumor screen, IC50 on patient tumor cells, tumor #7; format: cell-based; details: Homo sapiens, triplicate
From the text: as §1, with “used. […]” for “used.”
as §5
as §4, with “cells. […]” for “cells.”
as §6

[6] = tested on: Gastrointestinal stromal tumor (sarcoma) patient tumor cells; experiment: Alamar Blue anti-tumor screen, IC50 on patient tumor cells, tumor #6; format: cell-based; details: Homo sapiens, triplicate
From the text: as §1, with “used. […]” for “used.”
as §5
as §4, with “cells. […]” for “cells.”
as §6

[7] = tested on: Myxofibrosarcoma/thigh patient tumor cells; experiment: Alamar Blue anti-tumor screen, IC50 on patient tumor cells, tumor #3; format: cell-based; details: Homo sapiens, triplicate
From the text: as §1, with “used. […]” for “used.”
as §5
as §4, with “cells. […]” for “cells.”
as §6

[8] = tested on: patient tumor cells; experiment: Anti-tumor screen 1 and 2 at 10 μM on patient tumor cells; format: cell-based, human; details: for inhibition at 10 µM: Homo sapiens
From the text: as §1, §2, §3, §5
as §4, with “cells. […]” for “cells.”
as §6

[9] = tested on: patient normal cells; experiment: Anti-tumor screen 2 at 10 μM on patient normal cells; format: cell-based; details: Homo sapiens, screen 2, 10 μM, in duplicate
From the text: as §1, with “used. […]” for “used.”
as §5
as §4, with “cells. […]” for “cells.”
as §6

Structure (SMILES): O=C(Nc1ccc(Cl)cc1)c1cc2ccccc2cc1NS(=O)(=O)c1ccc(Cl)cc1 [Compound 5, N-(4-chlorophenyl)(3-{[(4-chlorophenyl)sulfonyl]amino}(2-naphthyl))-carboxamide]
- IC50 ([1]; Homo sapiens, Tumor #4 of Table 2, Leiomyosarcoma/pelvic, tested as in Example 3 (Table 3), read-out: IC50): 209 nM

Structure (SMILES): O=C(Nc1ccc(Cl)cc1)c1cc(Br)ccc1NS(=O)(=O)c1ccc(Cl)cc1 [Compound 2, 5-bromo-2-{[(4-chlorophenyl)sulfonyl]amino}-N-(4-chlorophenyl)-benzamide]
- IC50 ([1]; Homo sapiens): 44.7 nM

Structure (SMILES): O=C(Nc1ccc(Cl)cc1)c1cc(Br)ccc1NS(=O)(=O)c1ccc(Cl)c([N+](=O)[O-])c1 [Compound 3, (5-bromo-2-{[(4-chloro-3-nitrophenyl)sulfonyl]amino}phenyl)-N-(4-chlorophenyl)carboxamide]
- IC50 ([1]; Homo sapiens): 118 nM

Structure (SMILES): O=C(Nc1ccc(Cl)cc1)c1cc(Cl)ccc1NS(=O)(=O)c1ccc(Cl)cc1 [Compound 1, 5-chloro-2-{[(4-chlorophenyl)sulfonyl]amino}-N-(4-chlorophenyl)benzamide]
- IC50 [2]: 30 nM
- IC50 ([3]; Homo sapiens): 170 nM
- IC50 [3]: 150 nM
- IC50 [4]: 2400 nM
- IC50 [5]: 35 nM
- IC50 ([1]; Homo sapiens, Tumor #4, Leiomyosarcoma/pelvic, patient tumor cells, triplicate (Table 2), read-out: IC50): 339 nM
- IC50 ([1]; Tumor #4, Leiomyosarcoma/pelvic, patient tumor cells, triplicate (Table 2), read-out: IC50): 410 nM
- IC50 [6]: 531 nM
- IC50 [7]: 49 nM
- inhibition at 10 µM ([8]; screen 1, 10 μM, patient tumor cells, criterion: at least 80% inhibition and/or two standard deviations from the mean of the plate samples, read-out: inhibition (compared to cell and media controls)): ≥ 80%
- inhibition at 10 µM ([8]; screen 2, 10 μM, in duplicate, patient tumors, read-out: inhibition on tumor cells): ≥ 80%
- selectivity against tumor cells ([8]; three-tier anti-tumor screen, tumor versus normal patient cells, 10 μM): selectivity against tumor cells
- inhibition at 10 µM [9]: ≤ 20%
